Source: publication PMC3187668 (Chemmedchem, 2011)

Molecular target: PI3Kα (Homo sapiens, UniProt P42336)
Experiment: […]-ATP lipid kinase assay
Format: biochemical

Chain of PI3Kα (P42336 whole entry): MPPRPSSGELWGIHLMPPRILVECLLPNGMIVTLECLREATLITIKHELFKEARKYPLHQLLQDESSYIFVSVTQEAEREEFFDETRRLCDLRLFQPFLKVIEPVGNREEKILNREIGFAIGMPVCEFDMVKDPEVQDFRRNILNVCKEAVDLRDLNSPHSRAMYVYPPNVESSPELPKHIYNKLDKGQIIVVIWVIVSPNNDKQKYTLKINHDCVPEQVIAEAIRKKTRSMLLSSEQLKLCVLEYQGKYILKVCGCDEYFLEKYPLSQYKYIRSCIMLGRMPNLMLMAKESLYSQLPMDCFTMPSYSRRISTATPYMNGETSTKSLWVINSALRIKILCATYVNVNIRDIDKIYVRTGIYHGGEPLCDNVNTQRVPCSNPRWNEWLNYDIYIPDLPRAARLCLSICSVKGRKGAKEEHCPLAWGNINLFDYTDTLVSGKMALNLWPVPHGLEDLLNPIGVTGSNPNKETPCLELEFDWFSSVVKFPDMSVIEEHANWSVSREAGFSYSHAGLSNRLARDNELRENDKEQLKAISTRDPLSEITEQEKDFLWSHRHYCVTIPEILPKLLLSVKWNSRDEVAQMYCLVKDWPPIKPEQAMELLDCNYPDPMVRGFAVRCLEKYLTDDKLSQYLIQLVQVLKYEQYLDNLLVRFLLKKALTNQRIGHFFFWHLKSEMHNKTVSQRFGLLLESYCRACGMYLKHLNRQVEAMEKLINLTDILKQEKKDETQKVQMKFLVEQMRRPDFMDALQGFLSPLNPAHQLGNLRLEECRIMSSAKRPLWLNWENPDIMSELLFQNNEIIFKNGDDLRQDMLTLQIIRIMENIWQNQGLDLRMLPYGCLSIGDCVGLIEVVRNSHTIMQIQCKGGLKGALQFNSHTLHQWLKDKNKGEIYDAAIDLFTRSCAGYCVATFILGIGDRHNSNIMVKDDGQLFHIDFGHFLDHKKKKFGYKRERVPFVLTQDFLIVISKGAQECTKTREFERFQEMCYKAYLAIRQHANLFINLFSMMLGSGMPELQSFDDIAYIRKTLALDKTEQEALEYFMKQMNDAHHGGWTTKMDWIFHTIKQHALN
Chain of PI3Kα (P27986 2-724 partner): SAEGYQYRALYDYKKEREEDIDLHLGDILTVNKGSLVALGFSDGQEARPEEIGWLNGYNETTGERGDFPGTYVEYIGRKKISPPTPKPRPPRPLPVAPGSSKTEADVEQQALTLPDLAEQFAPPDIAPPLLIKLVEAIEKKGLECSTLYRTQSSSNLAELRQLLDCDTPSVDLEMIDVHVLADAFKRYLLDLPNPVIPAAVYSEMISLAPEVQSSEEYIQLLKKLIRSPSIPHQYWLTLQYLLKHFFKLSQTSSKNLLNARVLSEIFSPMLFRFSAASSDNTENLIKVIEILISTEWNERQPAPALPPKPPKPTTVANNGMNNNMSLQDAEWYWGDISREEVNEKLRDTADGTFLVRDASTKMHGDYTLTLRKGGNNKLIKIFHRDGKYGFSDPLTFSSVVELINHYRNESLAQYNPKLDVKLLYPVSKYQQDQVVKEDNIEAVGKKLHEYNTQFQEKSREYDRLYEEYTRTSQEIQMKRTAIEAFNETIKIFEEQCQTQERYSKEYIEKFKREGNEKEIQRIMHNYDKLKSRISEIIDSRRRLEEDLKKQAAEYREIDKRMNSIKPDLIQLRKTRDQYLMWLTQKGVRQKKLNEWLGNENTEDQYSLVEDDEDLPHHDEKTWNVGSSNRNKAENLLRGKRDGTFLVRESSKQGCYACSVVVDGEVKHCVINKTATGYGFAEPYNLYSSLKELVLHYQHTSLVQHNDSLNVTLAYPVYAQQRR

IC50: 3 nM
Compound: O=C1NC(=S)SC1=Cc1ccc2nccnc2c1 [compound 19, 19]
